Measurements: PubChem BioAssay (NCI)
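Step 1: Grow cells in 96-well plates. Step 2: Expose to compound for 48 hours at 5 concentrations. Step 3: Interpolate endpoints linearly; if unreached, use highest concentration. Here, GI50 denotes the concentration required for 50% inhibition of growth. TGI marks complete inhibition of growth.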

Key:
Assay in all cases: inhibition of tumour cell growth, NCI panel, 48 h
SF-268 CNS = test system: SF-268 CNS
HOP-62 NSCLC = test system: HOP-62 NSCLC
NCI-H522 lung = test system: NCI-H522 lung
OVCAR-3 ovarian = test system: OVCAR-3 ovarian
OVCAR-8 ovarian = test system: OVCAR-8 ovarian
DU-145 prostate = test system: DU-145 prostate
NCI/ADR-RES ovarian = test system: NCI/ADR-RES ovarian
UO-31 renal = test system: UO-31 renal
SW-620 colon = test system: SW-620 colon
T-47D breast = test system: T-47D breast
UACC-62 melanoma = test system: UACC-62 melanoma
HT29 colon = test system: HT29 colon
RPMI-8226 leukemia = test system: RPMI-8226 leukemia
A498 renal = test system: A498 renal
NCI-H226 lung = test system: NCI-H226 lung
IGROV1 ovarian = test system: IGROV1 ovarian
SNB-19 CNS = test system: SNB-19 CNS
MALME-3M melanoma = test system: MALME-3M melanoma
HCT-116 colon = test system: HCT-116 colon
BT-549 breast = test system: BT-549 breast
SN12C renal = test system: SN12C renal
HS 578T breast = test system: HS 578T breast
A549 NSCLC = test system: A549 NSCLC
MOLT-4 leukemia = test system: MOLT-4 leukemia
OVCAR-4 ovarian = test system: OVCAR-4 ovarian
NCI-H460 lung = test system: NCI-H460 lung
MDA-MB-231 breast = test system: MDA-MB-231 breast
UACC-257 melanoma = test system: UACC-257 melanoma
LOX IMVI melanoma = test system: LOX IMVI melanoma
MDA-MB-435 = test system: MDA-MB-435
ACHN renal = test system: ACHN renal
M14 melanoma = test system: M14 melanoma
U251 CNS = test system: U251 CNS
HOP-92 NSCLC = test system: HOP-92 NSCLC
MDA-N = test system: MDA-N
NCI-H23 lung = test system: NCI-H23 lung
786-0 renal = test system: 786-0 renal
OVCAR-5 ovarian = test system: OVCAR-5 ovarian
RXF 393 renal = test system: RXF 393 renal
KM12 colon = test system: KM12 colon
SK-MEL-5 melanoma = test system: SK-MEL-5 melanoma
SR leukemia = test system: SR leukemia
SK-MEL-2 melanoma = test system: SK-MEL-2 melanoma
SF-295 CNS = test system: SF-295 CNS
SK-MEL-28 melanoma = test system: SK-MEL-28 melanoma
CAKI-1 renal = test system: CAKI-1 renal
EKVX NSCLC = test system: EKVX NSCLC
CCRF-CEM leukemia = test system: CCRF-CEM leukemia
HL-60(TB) leukemia = test system: HL-60(TB) leukemia
PC-3 prostate = test system: PC-3 prostate
TK-10 renal = test system: TK-10 renal
K-562 leukemia = test system: K-562 leukemia
HCT-15 colon = test system: HCT-15 colon
SK-OV-3 ovarian = test system: SK-OV-3 ovarian
COLO 205 colon = test system: COLO 205 colon
HCC-2998 colon = test system: HCC-2998 colon
MCF7 breast = test system: MCF7 breast
SF-539 CNS = test system: SF-539 CNS
SNB-75 CNS = test system: SNB-75 CNS

**Q.** With `O=[N+]([O-])c1cc(-c2ccc([As](=O)(O)O)cc2)ccc1[As](=O)(O)O` as the compound, how does the TGI (SF-268 CNS) read?
**A.** > 100 µM

**Q.** And the TGI (HOP-62 NSCLC)?
**A.** > 100 µM

**Q.** What about the TGI (NCI-H522 lung) of the same compound?
**A.** > 100 µM

**Q.** And the TGI (OVCAR-3 ovarian)?
**A.** > 100 µM

**Q.** And the TGI (OVCAR-8 ovarian)?
**A.** > 100 µM

**Q.** And the TGI (DU-145 prostate)?
**A.** > 100 µM

**Q.** What about the TGI (NCI/ADR-RES ovarian) of the same compound?
**A.** > 100 µM

**Q.** What about the TGI (UO-31 renal) of the same compound?
**A.** > 100 µM

**Q.** And the TGI (SW-620 colon)?
**A.** > 100 µM

**Q.** What about the TGI (T-47D breast) of the same compound?
**A.** > 100 µM

**Q.** And the TGI (UACC-62 melanoma)?
**A.** > 100 µM

**Q.** What about the TGI (HT29 colon) of the same compound?
**A.** > 100 µM

**Q.** And the TGI (RPMI-8226 leukemia)?
**A.** > 100 µM

**Q.** What about the TGI (A498 renal) of the same compound?
**A.** > 100 µM

**Q.** And the TGI (NCI-H226 lung)?
**A.** > 100 µM

**Q.** What about the TGI (IGROV1 ovarian) of the same compound?
**A.** > 100 µM

**Q.** And the TGI (SNB-19 CNS)?
**A.** > 100 µM

**Q.** What about the TGI (MALME-3M melanoma) of the same compound?
**A.** > 100 µM

**Q.** What about the TGI (HCT-116 colon) of the same compound?
**A.** > 100 µM

**Q.** What about the TGI (BT-549 breast) of the same compound?
**A.** > 100 µM

**Q.** And the TGI (SN12C renal)?
**A.** > 100 µM

**Q.** What about the TGI (HS 578T breast) of the same compound?
**A.** > 100 µM

**Q.** What about the TGI (A549 NSCLC) of the same compound?
**A.** > 100 µM

**Q.** What about the TGI (MOLT-4 leukemia) of the same compound?
**A.** > 100 µM

**Q.** And the TGI (OVCAR-4 ovarian)?
**A.** > 100 µM

**Q.** What about the TGI (NCI-H460 lung) of the same compound?
**A.** > 100 µM

**Q.** What about the TGI (MDA-MB-231 breast) of the same compound?
**A.** > 100 µM

**Q.** And the TGI (UACC-257 melanoma)?
**A.** > 100 µM

**Q.** And the TGI (LOX IMVI melanoma)?
**A.** > 100 µM

**Q.** And the TGI (MDA-MB-435)?
**A.** > 100 µM

**Q.** What about the TGI (ACHN renal) of the same compound?
**A.** > 100 µM

**Q.** What about the TGI (M14 melanoma) of the same compound?
**A.** > 100 µM

**Q.** What about the TGI (U251 CNS) of the same compound?
**A.** > 100 µM

**Q.** What about the TGI (HOP-92 NSCLC) of the same compound?
**A.** > 100 µM

**Q.** And the TGI (MDA-N)?
**A.** > 100 µM

**Q.** What about the TGI (NCI-H23 lung) of the same compound?
**A.** > 100 µM

**Q.** What about the TGI (786-0 renal) of the same compound?
**A.** > 100 µM

**Q.** What about the TGI (OVCAR-5 ovarian) of the same compound?
**A.** > 100 µM

**Q.** What about the TGI (RXF 393 renal) of the same compound?
**A.** > 100 µM

**Q.** What about the TGI (KM12 colon) of the same compound?
**A.** > 100 µM

**Q.** What about the TGI (SK-MEL-5 melanoma) of the same compound?
**A.** > 100 µM

**Q.** What about the TGI (SR leukemia) of the same compound?
**A.** > 100 µM

**Q.** And the TGI (SK-MEL-2 melanoma)?
**A.** > 100 µM

**Q.** What about the TGI (SF-295 CNS) of the same compound?
**A.** > 100 µM

**Q.** And the TGI (SK-MEL-28 melanoma)?
**A.** > 100 µM

**Q.** And the TGI (CAKI-1 renal)?
**A.** > 100 µM

**Q.** And the TGI (EKVX NSCLC)?
**A.** > 100 µM

**Q.** What about the TGI (CCRF-CEM leukemia) of the same compound?
**A.** > 100 µM

**Q.** What about the TGI (HL-60(TB) leukemia) of the same compound?
**A.** > 100 µM

**Q.** And the TGI (PC-3 prostate)?
**A.** > 100 µM

**Q.** And the TGI (TK-10 renal)?
**A.** > 100 µM

**Q.** What about the TGI (K-562 leukemia) of the same compound?
**A.** > 100 µM

**Q.** What about the TGI (HCT-15 colon) of the same compound?
**A.** > 100 µM

**Q.** For `CCc1cc2c(cc1O)CC[C@@H]1[C@@H]2CC[C@]2(C)[C@@H](O)CC[C@@H]12`, which TGI (SF-268 CNS) is on record?
**A.** 24.6 µM

**Q.** What about the TGI (HOP-62 NSCLC) of the same compound?
**A.** 19.8 µM

**Q.** What about the TGI (NCI-H522 lung) of the same compound?
**A.** 27.3 µM

**Q.** And the GI50 (OVCAR-3 ovarian)?
**A.** 2.94 µM

**Q.** What about the TGI (OVCAR-3 ovarian) of the same compound?
**A.** 11.5 µM

**Q.** What about the TGI (OVCAR-8 ovarian) of the same compound?
**A.** 22.4 µM

**Q.** And the GI50 (DU-145 prostate)?
**A.** 11.1 µM

**Q.** And the TGI (DU-145 prostate)?
**A.** 24.5 µM

**Q.** What about the TGI (NCI/ADR-RES ovarian) of the same compound?
**A.** 9.92 µM

**Q.** What about the TGI (UO-31 renal) of the same compound?
**A.** 21.8 µM

**Q.** And the TGI (SW-620 colon)?
**A.** 16.6 µM

**Q.** What about the TGI (T-47D breast) of the same compound?
**A.** 32.9 µM

**Q.** And the TGI (HT29 colon)?
**A.** 29.3 µM

**Q.** What about the TGI (A498 renal) of the same compound?
**A.** 34.6 µM

**Q.** And the TGI (NCI-H226 lung)?
**A.** 26.6 µM

**Q.** And the TGI (IGROV1 ovarian)?
**A.** 28.4 µM

**Q.** What about the TGI (SNB-19 CNS) of the same compound?
**A.** 19 µM

**Q.** And the TGI (MALME-3M melanoma)?
**A.** 12.5 µM

**Q.** And the TGI (SK-OV-3 ovarian)?
**A.** 39.6 µM

**Q.** What about the GI50 (HCT-116 colon) of the same compound?
**A.** 3.52 µM

**Q.** What about the TGI (HCT-116 colon) of the same compound?
**A.** 13.4 µM

**Q.** What about the GI50 (SN12C renal) of the same compound?
**A.** 7.3 µM

**Q.** What about the TGI (SN12C renal) of the same compound?
**A.** 20 µM

**Q.** What about the TGI (COLO 205 colon) of the same compound?
**A.** 31.9 µM

**Q.** What about the TGI (A549 NSCLC) of the same compound?
**A.** 21.3 µM

**Q.** What about the TGI (MOLT-4 leukemia) of the same compound?
**A.** 20 µM

**Q.** What about the TGI (OVCAR-4 ovarian) of the same compound?
**A.** 27.3 µM

**Q.** What about the TGI (NCI-H460 lung) of the same compound?
**A.** 20.9 µM

**Q.** And the TGI (MDA-MB-231 breast)?
**A.** 21.4 µM

**Q.** What about the TGI (UACC-257 melanoma) of the same compound?
**A.** 20 µM

**Q.** And the TGI (HCC-2998 colon)?
**A.** 24 µM

**Q.** And the TGI (MCF7 breast)?
**A.** 10.4 µM

**Q.** What about the TGI (LOX IMVI melanoma) of the same compound?
**A.** 26.6 µM

**Q.** What about the TGI (MDA-MB-435) of the same compound?
**A.** 4.99 µM

**Q.** And the TGI (ACHN renal)?
**A.** 22.9 µM

**Q.** What about the GI50 (SF-539 CNS) of the same compound?
**A.** 3.27 µM

**Q.** What about the TGI (SF-539 CNS) of the same compound?
**A.** 9.5 µM

**Q.** And the TGI (M14 melanoma)?
**A.** 19.8 µM

**Q.** And the TGI (U251 CNS)?
**A.** 16.7 µM

**Q.** And the TGI (MDA-N)?
**A.** 8.62 µM

**Q.** What about the TGI (NCI-H23 lung) of the same compound?
**A.** 20.6 µM

**Q.** And the TGI (786-0 renal)?
**A.** 17.8 µM

**Q.** What about the TGI (OVCAR-5 ovarian) of the same compound?
**A.** 39.4 µM

**Q.** What about the TGI (KM12 colon) of the same compound?
**A.** 17.4 µM

**Q.** And the TGI (SK-MEL-5 melanoma)?
**A.** 20.4 µM

**Q.** And the TGI (SR leukemia)?
**A.** 10.9 µM

**Q.** And the TGI (SK-MEL-2 melanoma)?
**A.** 25 µM

**Q.** And the TGI (SF-295 CNS)?
**A.** 12.1 µM

**Q.** And the TGI (SK-MEL-28 melanoma)?
**A.** 16.3 µM

**Q.** And the TGI (CAKI-1 renal)?
**A.** 20.8 µM

**Q.** What about the TGI (EKVX NSCLC) of the same compound?
**A.** 25.5 µM

**Q.** What about the TGI (CCRF-CEM leukemia) of the same compound?
**A.** 15 µM

**Q.** And the TGI (HL-60(TB) leukemia)?
**A.** 7.66 µM

**Q.** What about the TGI (SNB-75 CNS) of the same compound?
**A.** 7.59 µM

**Q.** And the TGI (PC-3 prostate)?
**A.** 37.3 µM

**Q.** And the TGI (TK-10 renal)?
**A.** 60.9 µM

**Q.** What about the TGI (K-562 leukemia) of the same compound?
**A.** 14.5 µM

**Q.** What about the TGI (HCT-15 colon) of the same compound?
**A.** 29.2 µM
